Assay results: patent publication US9533987B2, “Heterocyclic derivates” (KALVISTA PHARMACEUTICALS LIMITED, priority 2013, dated 2017)

Assays:
Human KLK1 = Human KLK1 (Homo sapiens (Human), UniProt P06870); test: Determination of the IC50 for KLK1 (fluorogenic substrate H-DVal-Leu-Arg-AFC); format: biochemical; settings: 37° C.
Protocol: Determination of the IC50 for KLK1
(§1) Human KLK1 (Callbiochem) was incubated at 37° C. with the fluorogenic substrate H-DVal-Leu-Arg-AFC and various concentrations of the test compound. Residual enzyme activity (initial rate of reaction) was determined by measuring the change in […] at 410 nm and the IC50 value for the test compound was determined.

Human plasma kallikrein = Human plasma kallikrein (Homo sapiens (Human), UniProt P03952); test: Determination of the IC50 for plasma kallikrein (fluorogenic substrate H-DPro-Phe-Arg-AFC); format: biochemical; settings: 37° C., read-out: IC50 (human PKaI)
Protocol: Determination of the IC50 for Plasma Kallikrein
as §1, with “plasma kallikrein (Protogen)” for “KLK1 (Callbiochem)”, “H-DPro-Phe-Arg-AFC” for “H-DVal-Leu-Arg-AFC”

Sequence of Human plasma kallikrein (P03952 391-638): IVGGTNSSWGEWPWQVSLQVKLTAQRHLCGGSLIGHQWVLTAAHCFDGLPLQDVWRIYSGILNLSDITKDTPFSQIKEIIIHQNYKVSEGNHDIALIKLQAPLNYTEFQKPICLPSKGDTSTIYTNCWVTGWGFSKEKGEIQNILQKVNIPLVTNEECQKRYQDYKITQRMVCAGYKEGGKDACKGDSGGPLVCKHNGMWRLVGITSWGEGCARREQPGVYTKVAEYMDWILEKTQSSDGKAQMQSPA
Sequence of Human plasma kallikrein (P03952 20-390 partner): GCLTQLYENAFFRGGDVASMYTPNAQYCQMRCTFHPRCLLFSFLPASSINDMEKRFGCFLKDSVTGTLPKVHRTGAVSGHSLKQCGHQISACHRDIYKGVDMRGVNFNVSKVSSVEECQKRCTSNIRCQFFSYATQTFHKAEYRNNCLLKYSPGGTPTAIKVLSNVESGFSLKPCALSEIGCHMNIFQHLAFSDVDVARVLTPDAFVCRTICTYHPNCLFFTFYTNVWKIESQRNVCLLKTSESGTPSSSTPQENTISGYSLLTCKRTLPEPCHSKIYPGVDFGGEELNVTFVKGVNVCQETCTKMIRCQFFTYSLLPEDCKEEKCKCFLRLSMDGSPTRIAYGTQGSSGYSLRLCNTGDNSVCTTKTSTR
Sequence of Human KLK1 (P06870 25-262): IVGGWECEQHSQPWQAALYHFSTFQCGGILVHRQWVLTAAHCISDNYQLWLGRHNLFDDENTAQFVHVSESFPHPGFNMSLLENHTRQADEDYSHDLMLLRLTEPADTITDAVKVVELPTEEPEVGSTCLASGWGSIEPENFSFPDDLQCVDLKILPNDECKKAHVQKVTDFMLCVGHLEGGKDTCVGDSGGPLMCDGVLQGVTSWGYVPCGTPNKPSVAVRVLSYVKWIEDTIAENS

Row | IC50 (Human KLK1) [nM] | IC50 (Human plasma kallikrein) [nM] | Compound
1 | 2770 | 425 | CCOc1cc(Cn2cc(C(=O)NCc3ccc4c(N)nccc4c3)c(C(F)(F)F)n2)cnc1Cl [Example 74, 1-(6-Chloro-5-ethoxy-pyridin-3-ylmethyl)-3-trifluoromethyl-1H-pyrazole-4-carboxylic acid (1-amino-isoquinolin-6-ylmethyl)-amide]
2 | 1300 | 98.3 | CCOc1ncc(Cn2cc(C(=O)NCc3ccc4c(N)nccc4c3)c(C(F)(F)F)n2)cc1F [Example 75, 1-(6-Ethoxy-5-fluoro-pyridin-3-ylmethyl)-3-trifluoromethyl-1H-pyrazole-4-carboxylic acid (1-amino-isoquinolin-6-ylmethyl)-amide]
3 | > 1000 | 0.92 | Nc1nccc2cc(CNC(=O)c3cn(Cc4ccc(Cn5cccn5)cc4)nc3C(F)(F)F)ccc12 [Example 76, 1-(4-Pyrazol-1-ylmethyl-benzyl)-3-trifluoromethyl-1H-pyrazole-4-carboxylic acid (1-amino-isoquinolin-6-ylmethyl)-amide]
4 | > 10000 | 85.4 | N#Cc1cnn(Cc2ccc(Cn3cc(C(=O)NCc4ccc5c(N)nccc5c4)c(C(F)(F)F)n3)cc2)c1 [Example 77, 1-[4-(4-Cyano-pyrazol-1-ylmethyl)-benzyl]-3-trifluoromethyl-1H-pyrazole-4-carboxylic acid (1-amino-isoquinolin-6-ylmethyl)-amide]
5 | > 10000 | 91.1 | NC(=O)c1cnn(Cc2ccc(Cn3cc(C(=O)NCc4ccc5c(N)nccc5c4)c(C(F)(F)F)n3)cc2)c1 [Example 78, 1-[4-(4-Carbamoyl-pyrazol-1-ylmethyl)-benzyl]-3-trifluoromethyl-1H-pyrazole-4-carboxylic acid (1-amino-isoquinolin-6-ylmethyl)-amide]
6 | > 10000 | 2.29 | Nc1nccc2cc(CNC(=O)c3cn(Cc4ccc(Cn5cccn5)nc4)nc3C(F)(F)F)ccc12 [Example 79, 1-(6-Pyrazol-1-ylmethyl-pyridin-3-ylmethyl)-3-trifluoromethyl-1H-pyrazole-4-carboxylic acid (1-amino-isoquinolin-6-ylmethyl)-amide]
7 | 8970 | 26.5 | Nc1nccc2cc(CNC(=O)c3cn(Cc4csc(Cn5cccn5)n4)nc3C(F)(F)F)ccc12 [Example 81, 1-(2-Pyrazol-1-ylmethyl-thiazol-4-ylmethyl)-3-trifluoromethyl-1H-pyrazole-4-carboxylic acid (1-amino-isoquinolin-6-ylmethyl)-amide]
8 | 4710 | 21.2 | Cc1cnn(Cc2nc(Cn3cc(C(=O)NCc4ccc5c(N)nccc5c4)c(C(F)(F)F)n3)cs2)c1 [Example 82, 1-[2-(4-Methyl-pyrazol-1-ylmethyl)-thiazol-4-ylmethyl]-3-trifluoromethyl-1H-pyrazole-4-carboxylic acid (1-amino-isoquinolin-6-ylmethyl)-amide]
9 | > 10000 | 13.8 | Nc1nccc2cc(CNC(=O)c3cn(Cc4ccc(Cn5ccnn5)cc4)nc3C3CC3)ccc12 [Example 91, 3-Cyclopropyl-1-(4-[1,2,3]triazol-1-ylmethyl-benzyl)-1H-pyrazole-4-carboxylic acid (1-amino-isoquinolin-6-ylmethyl)-amide]
10 | > 10000 | 109 | Nc1nccc2cc(CNC(=O)c3cn(Cc4ccc(OCC(F)(F)F)nc4)nc3C3CC3)ccc12 [Example 92, 3-Cyclopropyl-1-[6-(2,2,2-trifluoro-ethoxy)-pyridin-3-ylmethyl]-1H-pyrazole-4-carboxylic acid (1-amino-isoquinolin-6-ylmethyl)-amide]
11 | 3140 | 62.4 | CCOc1ccc(Cn2cc(C(=O)NCc3ccc4c(N)nccc4c3)c(N)n2)cn1 [Example 98, 3-Amino-1-(6-ethoxy-pyridin-3-ylmethyl)-1H-pyrazole-4-carboxylic acid (1-amino-isoquinolin-6-ylmethyl)-amide]

The next lines start with the molecule.

Row | Compound | IC50 (Human KLK1) [nM] | IC50 (Human plasma kallikrein) [nM]
12 | CCOc1cc(Cn2cc(C(=O)NCc3ccc4c(N)nccc4c3)c(C(F)(F)F)n2)ccn1 [Example 80, 1-(2-Ethoxy-pyridin-4-ylmethyl)-3-trifluoromethyl-1H-pyrazole-4-carboxylic acid (1-amino-isoquinolin-6-ylmethyl)-amide] | 9280 | 206
13 | COCCN(C)c1ccc(Cn2cc(C(=O)NCc3ccc4c(N)nccc4c3)c(C3CC3)n2)cn1 [Example 86, 3-Cyclopropyl-1-{6-[(2-methoxy-ethyl)-methyl-amino]-pyridin-3-ylmethyl}-1H-pyrazole-4-carboxylic acid (1-amino-isoquinolin-6-ylmethyl)-amide] | 8790 | 56.1
14 | Nc1nccc2cc(CNC(=O)c3cn(Cc4ccc(N5CCC(F)(F)C5)nc4)nc3C3CC3)ccc12 [Example 87, 3-Cyclopropyl-1-[6-(3,3-difluoro-pyrrolidin-1-yl)-pyridin-3-ylmethyl]-1H-pyrazole-4-carboxylic acid (1-amino-isoquinolin-6-ylmethyl)-amide] | 6460 | 23.2
15 | COc1cc(Cn2cc(C(=O)NCc3ccc4c(N)nccc4c3)c(C3CC3)n2)cc(N2CCCC2)n1 [Example 88, 3-Cyclopropyl-1-(2-methoxy-6-pyrrolidin-1-yl-pyridin-4-ylmethyl)-1H-pyrazole-4-carboxylic acid (1-amino-isoquinolin-6-ylmethyl)-amide] | 9630 | 112
16 | COc1cc(N2CCCC2)ncc1Cn1cc(C(=O)NCc2ccc3c(N)nccc3c2)c(C2CC2)n1 [Example 89, 3-Cyclopropyl-1-(4-methoxy-6-pyrrolidin-1-yl-pyridin-3-ylmethyl)-1H-pyrazole-4-carboxylic acid (1-amino-isoquinolin-6-ylmethyl)-amide] | 960 | 17.8
17 | Nc1nccc2cc(CNC(=O)c3cn(Cc4ccc(N5CCCC5)nc4)nc3C3CC3)ccc12 [Example 90, 3-Cyclopropyl-1-(6-pyrrolidin-1-yl-pyridin-3-ylmethyl)-1H-pyrazole-4-carboxylic acid (1-amino-isoquinolin-6-ylmethyl)-amide] | 4700 | 11.6
18 | Nc1nccc2cc(CNC(=O)c3cn(Cc4ccc(Oc5ccccc5)nc4)nc3C3CC3)ccc12 [Example 93, 3-Cyclopropyl-1-(6-phenoxy-pyridin-3-ylmethyl)-1H-pyrazole-4-carboxylic acid (1-amino-isoquinolin-6-ylmethyl)-amide] | > 10000 | 75.1
19 | CCOc1ncc(Cn2cc(C(=O)NCc3ccc4c(N)nccc4c3)c(C3CC3)n2)cc1Cl [Example 94, 1-(5-Chloro-6-ethoxy-pyridin-3-ylmethyl)-3-cyclopropyl-1H-pyrazole-4-carboxylic acid (1-amino-isoquinolin-6-ylmethyl)-amide] | 2000 | 53.2
20 | CCN(CC)c1ncc(Cn2cc(C(=O)NCc3ccc4c(N)nccc4c3)c(C3CC3)n2)cc1F [Example 95, 3-Cyclopropyl-1-(6-diethylamino-5-fluoro-pyridin-3-ylmethyl)-1H-pyrazole-4-carboxylic acid (1-amino-isoquinolin-6-ylmethyl)-amide] | 9640 | 34
21 | Nc1nccc2cc(CNC(=O)c3cn(Cc4cnc(N5CCCC5)c(Cl)c4)nc3C3CC3)ccc12 [Example 97, 1-(5-Chloro-6-pyrrolidin-1-yl-pyridin-3-ylmethyl)-3-cyclopropyl-1H-pyrazole-4-carboxylic acid (1-amino-isoquinolin-6-ylmethyl)-amide] | 3010 | 18.5
22 | Nc1nn(Cc2ccc(N3CCCC3)nc2)cc1C(=O)NCc1ccc2c(N)nccc2c1 [Example 99, 3-Amino-1-(6-pyrrolidin-1-yl-pyridin-3-ylmethyl)-1H-pyrazole-4-carboxylic acid (1-amino-isoquinolin-6-ylmethyl)-amide] | 3460 | 4.15
23 | Nc1nn(Cc2ccc(Cn3ccccc3=O)cc2)cc1C(=O)NCc1cccc2[nH]ncc12 [Example 113, 3-Amino-1-[4-(2-oxo-2H-pyridin-1-ylmethyl)-benzyl]-1H-pyrazole-4-carboxylic acid (1H-indazol-4-ylmethyl)-amide] | 5950 | 13.3
24 | O=C(NCc1cnc2[nH]ccc2c1)c1cn(Cc2ccc(N3CCCC3)nc2)nc1C(F)(F)F [Example 114, 1-(6-Pyrrolidin-1-yl-pyridin-3-ylmethyl)-3-trifluoromethyl-1H-pyrazole-4-carboxylic acid (1H-pyrrolo[2,3-b]pyridin-5-ylmethyl)-amide] | 1210 | 304
25 | Cc1cnn(Cc2ccc(Cn3cc(C(=O)NCc4cnc5[nH]ccc5c4)c(C(F)(F)F)n3)cc2)c1 [Example 121, 1-[4-(4-Methyl-pyrazol-1-ylmethyl)-benzyl]-3-trifluoromethyl-1H-pyrazole-4-carboxylic acid (1H-pyrrolo[2,3-b]pyridin-5-ylmethyl)-amide] | > 10000 | 62
26 | Cc1cnn(Cc2ccc(Cn3cc(C(=O)NCc4c(C)nc5[nH]ccc5c4C)c(C4CC4)n3)cc2)c1 [Example 122, 3-Cyclopropyl-1-[4-(4-methyl-pyrazol-1-ylmethyl)-benzyl]-1H-pyrazole-4-carboxylic acid (4,6-dimethyl-1H-pyrrolo[2,3-b]pyridin-5-ylmethyl)-amide] | > 10000 | 101
27 | Cc1cnn(Cc2ccc(Cn3cc(C(=O)NCc4ccnc5[nH]ccc45)c(C(F)(F)F)n3)cc2)c1 [Example 125, 1-[4-(4-Methyl-pyrazol-1-ylmethyl)-benzyl]-3-trifluoromethyl-1H-pyrazole-4-carboxylic acid (1H-pyrrolo[2,3-b]pyridin-4-ylmethyl)-amide] | > 10000 | 4010
